According to US20100113570A1, “PREVENTION AND TREATMENT OF POST-OPERATIVE COGNITIVE DYSFUNCTION” (The General Hospital Corporation, priority 2008, published 2010):

Experiments:
[1] = test system: H4-APP cells; test: Caspase-3 activation by Western blot (ratio of caspase-3 fragment to FL-caspase-3) in H4-APP cells; assay type: cell-based, human
Description: (§1) Cell lines. We used naive H4 human neuroglioma cells stably transfected to express full-length APP (FL-APP; H4-APP cells) in the studies. The cells were cultured in DMEM (high glucose) containing 9% heat inactivated fetal calf serum, 100 U/ml penicillin, 100 μg/ml streptomycin, 2 mM L-glutamine, and 200 μg/ml G418.
(§2) Cell treatment. Twenty-one percent O2, 5% CO2, and 2% isoflurane were delivered from an anesthesia machine to a sealed plastic box in a 37° Celsius incubator containing six-well plates seeded with one million cells in 1.5 ml of cell culture media as described in our previous studies (Xie et al., 2006a,b, 2007). Date infrared gas analyzer (Puritan-Bennett, Tewksbury, Mass.) was used to continuously monitor the delivered CO2, O2, and isoflurane concentrations. We treated the cells with 2% isoflurane for 6 h, during which time the cells were incubated in serum-free media. In the interaction studies, the cells were treated with memantine (4 μM) 1 h before the treatment of 2% isoflurane. Low-calcium condition was created by using a calcium-free cell culture media (Invitrogen, Carlsbad, Calif.) and by adding EDTA (10 mM; Sigma-Aldrich, St. Louis, Mo.), a chelating compound (Rekasi et al., 2005), or BAPTA (10 μM; Sigma-Aldrich), an intracellular calcium chelator, to the media. […] These siRNAs and control siRNAs (3′[…]) were obtained from Dharmacon (Lafayette, Colo.). siRNAs were transfected into cells by using electroporation (Amaxa Biosystems, Gaithersburg, Md.) as described by Xie et al. (2005b). Briefly, we mixed 1 million cells, 100 μl of AMAXA electroporation transfection solution, and 10 μl of 20 μM siRNA together and then used the C-9 program in an AMAXA electroporation device for cell transfection. The transfected cells were then placed in one of the six-well plates containing 1.5 ml of cell culture media. The pretreated cells were then exposed to the isoflurane treatment.
Cell lysis and protein amount quantification. Cell pellets were detergent-extracted on ice using immunoprecipitation buffer (10 mM Tris-HCl, pH 7.4, 150 mM NaCl, 2 mM EDTA, 0.5% Nonidet P-40) plus protease inhibitors (1 μg/ml aprotinin, 1 μg/ml leupeptin, 1 μg/ml pepstatin A). The lysates were collected, centrifuged at 12,000 rpm for 10 min, and quantified for total proteins by a BCA protein assay kit (Pierce Technology Corporation, Iselin, N.J.).
Western blot analysis. The harvested cells and brain tissues were subjected to Western blots as described by Xie et al. (2005a). A caspase-3 antibody (1:1000 dilution; Cell Signaling Technology, Beverly, Mass.) was used to recognize caspase-3 fragment (17-20 kDa) resulting from cleavage at asparate position 175 and FL-caspase-3 (35-40 kDa). Caspase-3 cleavage (activation) is based on the ratio of caspase-3 fragment to FL caspase-3. Antibody anti-b-actin was used to visualize b-actin (42 kDa). Antibodies for IP3 receptor (1:1000; Millipore Bioscience Research Reagents, Temecula, Calif.), NR1 (1:1000; PhosphoSolutions, Aurora, Colo.), and SERCA1 (1:1000; Abcam, Cambridge, Mass.) were used to recognize IP3 receptor (250 kDa), NR1 (120 kDa), and SERCA1 (110 kDa). The quantitation of Western blots was performed as described by Xie et al. (2005a). Briefly, the intensity of signals was analyzed by using a Bio-Rad (Hercules, Calif.) image program (Quantity One) and an NIH Image version 1.37v. We quantified the Western blots using two steps.

[2] = test system: H4-APP cells; test: Cell apoptosis assay (cell death detection ELISA); assay type: cell-based, human
Description: as §1, §2

[3] = test system: caspase-3; test: Caspase-3 activation in brain tissue of naive mice (Western blot); assay type: in vivo
Description: Mice treatment. The animal protocol was approved by the Massachusetts General Hospital Standing Committee on Animals Sixteen female C57BL/6 mice (5-6 months of age) (The Jackson Laboratory, Bar Harbor, Me.) were randomly assigned to an anesthesia or control group. […] This isoflurane treatment allows the mice to have sufficient exposure to isoflurane while avoiding excessive accumulation of CO2. The control mice (n=8) received 100% oxygen at an identical flow rate for 6 h and 20 min in an identical chamber. The mice breathed spontaneously, and anesthetic and oxygen concentrations were measured continuously (Datex, Puritan-Bennett; Ohmeda PPD, Madison, Wis.). Rectal temperature was measured intermittently, and the temperature of the anesthetizing chamber was controlled to maintain rectal temperature of the animals at 37±0.5° C. Mean arterial blood pressure was measured noninvasive using a tail cuff (CODA2 system; Kent Scientific Corporation, Torrington, Conn.) in the anesthetized mice. […] Mice were killed by decapitation at the end of the experiments, the brain was removed rapidly, and the prefrontal cortex was dissected out and frozen in liquid nitrogen for subsequent processing for the determination of caspase-3activation. […] Brain tissue lysis and protein amount quantification. […] The lysates were collected, centrifuged at 12,000 rpm for 10 min, and quantified for total proteins by a BCA protein assay kit (Pierce Technology Corporation). Western blot analysis. The harvested cells and brain tissues were subjected to Western blots as described by Xie et al. (2005a). […] Caspase-3 cleavage (activation) is based on the ratio of caspase-3 fragment to FL caspase-3. Antibody anti-b-actin was used to visualize b-actin (42 kDa). […] The quantitation of Western blots was performed as described by Xie et al. (2005a). Briefly, the intensity of signals was analyzed by using a Bio-Rad (Hercules, Calif.) image program (Quantity One) and an NIH Image version 1.37v. We quantified the Western blots using two steps. […] Data were expressed as mean±SD. […]

[4] = Blood pressure and blood gas of anesthetized mice; assay type: in vivo; conditions: 1.4% isoflurane for 2 h; data not shown
Description: Mice treatment. The animal protocol was approved by the Massachusetts General Hospital Standing Committee on Animals Sixteen female C57BL/6 mice (5-6 months of age) (The Jackson Laboratory, Bar Harbor, Me.) were randomly assigned to an anesthesia or control group. […] This isoflurane treatment allows the mice to have sufficient exposure to isoflurane while avoiding excessive accumulation of CO2. The control mice (n=8) received 100% oxygen at an identical flow rate for 6 h and 20 min in an identical chamber. The mice breathed spontaneously, and anesthetic and oxygen concentrations were measured continuously (Datex, Puritan-Bennett; Ohmeda PPD, Madison, Wis.). Rectal temperature was measured intermittently, and the temperature of the anesthetizing chamber was controlled to maintain rectal temperature of the animals at 37±0.5° C. Mean arterial blood pressure was measured noninvasive using a tail cuff (CODA2 system; Kent Scientific Corporation, Torrington, Conn.) in the anesthetized mice. […] Mice were killed by decapitation at the end of the experiments, the brain was removed rapidly, and the prefrontal cortex was dissected out and frozen in liquid nitrogen for subsequent processing for the determination of caspase-3activation.

[5] = test system: H4-APP cells; test: Cytosolic calcium measurement (Fura-2 ratio); assay type: cell-based, human
Description: Cytosolic calcium measurement. Cytosolic calcium levels were determined as described by Wei et al. (2008). Specifically, H4-APP cells were loaded with Fura-2 (Invitrogen), perfused with Tyrode buffer, and [Ca2+]i transients were recorded as changes in Fura-2 ratio (340/380 nm) using a spectrofluoroscope system (Ionoptix, Milton, Mass.).

[6] = MTT cell viability assay; assay type: cell-based, human; conditions: human, MTT
Description: as §1, §2

[7] = test system: H4-APP cells; test: MTT cell viability assay; assay type: cell-based, human
Description: as §1, §2

[8] = isoflurane plus control siRNA, control = 100%
[9] = memantine 4 μM alone vs control conditions

Structure (SMILES): O=C(O)CN(CC(=O)O)c1ccccc1OCCOc1ccccc1N(CC(=O)O)CC(=O)O [BAPTA, 1,2-bis (o-aminophenoxy)ethane-N,N,N′,N′-tetraacetic acid]
- caspase-3 activation, BAPTA plus isoflurane ([1]; BAPTA 10 μM plus 2% isoflurane for 6 h, control = 100%): 154%
- caspase-3 activation, BAPTA alone ([1]; BAPTA plus control condition vs DMSO plus control condition): does not induce caspase-3 activation

Structure (SMILES): O=C(O)CN(CCN(CC(=O)O)CC(=O)O)CC(=O)O [EDTA, ethylenediaminetetraacetic acid]
- reduction in caspase-3 activation compared with isoflurane plus normal calcium ([1]; isoflurane plus low calcium and EDTA (10 mM), H4-APP cells): 68%

Structure (SMILES): FC(F)OC(Cl)C(F)(F)F (centres unmarked) [isoflurane]
- cell apoptosis compared with control conditions ([2]; 2% isoflurane for 6 h alone, control = 100%): 137%
- caspase-3 activation compared with control conditions ([1]; 2% isoflurane for 6 h alone, H4-APP cells, control = 100%): 184%
- caspase-3 activation, isoflurane plus DMSO (BAPTA experiment) ([1]; 2% isoflurane for 6 h plus DMSO, control = 100%): 185%
- caspase-3 activation, isoflurane plus control siRNA (NR1 experiment) ([1]; 2% isoflurane for 6 h plus control siRNA, control = 100%): 168%
- caspase-3 activation, isoflurane plus control siRNA (IP3 receptor experiment) [1, 8]: 292%
- caspase-3 activation, isoflurane plus control siRNA (SERCA1 experiment) [1, 8]: 194%
- caspase-3 activation in mouse brain compared with control condition ([3]; three sessions of 1.4% isoflurane for 2 h, prefrontal cortex, control = 100%): 177%
- effect on blood pressure and venous blood gas [4]: did not significantly affect blood pressure and venous blood gas
- cytosolic calcium levels, isoflurane ([5]; isoflurane 1 mM or 3.5%): can elevate cytosolic calcium levels
- viability at 6 h, 2 % ([6]; 2% isoflurane for 6 h, percent of control, read-out: cell viability, isoflurane alone): 74%
- cytotoxicity at 6 h, 2 % ([6]; 2% isoflurane for 6 h vs control conditions, read-out: reduction in cell viability): 26%

Structure (SMILES): CC12CC3CC(C)(C1)CC(N)(C3)C2 [memantine]
- cell apoptosis, memantine alone [2, 9]: had no effects on either cell viability or apoptosis
- cell apoptosis, memantine plus isoflurane ([2]; memantine 4 μM plus 2% isoflurane for 6 h, control = 100%): 99%
- caspase-3 activation, memantine plus isoflurane ([1]; memantine 4 μM 1 h before 2% isoflurane for 6 h, H4-APP cells, control = 100%): 101%
- caspase-3 activation, memantine alone ([1]; memantine 4 μM alone vs control conditions, H4-APP cells): did not induce caspase-3 activation
- caspase-3 activation in mouse brain, memantine plus isoflurane ([3]; memantine 20 mg/kg i.p. 1 h before three sessions of 1.4% isoflurane for 2 h, control = 100%): 97%
- caspase-3 activation in mouse brain, memantine alone ([3]; memantine 20 mg/kg intraperitoneal alone vs control condition): did not induce caspase-3 activation
- isoflurane-induced elevation in cytosolic calcium levels, memantine pretreatment ([5]; pretreated with memantine 4 μM, then isoflurane 1 mM or 3.5%): isoflurane failed to increase cytosolic calcium levels
- cell viability, memantine alone [7, 9]: had no effects on either cell viability or apoptosis
- cell viability, memantine plus isoflurane ([7]; memantine 4 μM plus 2% isoflurane for 6 h, percent of control, MTT): 95%
